Assays:
Human Melanocortin (MC4) = target: T1, Human Melanocortin (MC4) (Homo sapiens, UniProt P32245); experiment: Radioligand binding, human melanocortin MC4 membranes, FlashPlate, [125I]-NDP-αMSH; conditions: compound at 10 μM; for A4 radioligand binding inhibition: human melanocortin MC4 membranes
T1 construct: purchased Perkin Elmer Biosignal
Method in brief: (§1)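 Cloned human receptor membranes were coated onto FlashPlate wells and incubated with radioligand and compound (added from a 0.5 mM DMSO daughter plate) for 1 hour at room temperature in the dark. Scintillation counting gave percent inhibition, with DMSO defining total and reference ligand defining non-specific binding.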

[1] = target: T2, Human neuropeptide Y (NPY-Y1) (Homo sapiens, UniProt P25929); experiment: Radioligand binding, human neuropeptide Y NPY-Y1 membranes, FlashPlate, [125I]-PYY; conditions: compound at 10 μM
T2 construct: purchased Perkin Elmer Biosignal
T2 sequence (P25929 1-384): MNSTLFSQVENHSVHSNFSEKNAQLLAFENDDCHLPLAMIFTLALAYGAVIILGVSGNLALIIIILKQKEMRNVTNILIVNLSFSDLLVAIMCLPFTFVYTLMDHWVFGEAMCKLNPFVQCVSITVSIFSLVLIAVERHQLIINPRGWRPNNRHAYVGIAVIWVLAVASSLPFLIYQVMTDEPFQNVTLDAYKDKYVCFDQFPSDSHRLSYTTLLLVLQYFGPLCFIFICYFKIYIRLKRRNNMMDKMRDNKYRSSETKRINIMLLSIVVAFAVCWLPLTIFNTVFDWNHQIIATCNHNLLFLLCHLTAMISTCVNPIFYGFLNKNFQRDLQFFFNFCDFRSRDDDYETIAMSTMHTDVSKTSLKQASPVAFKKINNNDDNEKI
Method in brief: as §1

Human melanocortin (MC5) = target: T3, Human melanocortin (MC5) (Homo sapiens, UniProt P33032); experiment: Radioligand binding, human melanocortin MC5 membranes, FlashPlate, [125I]-NDP-αMSH; conditions: compound at 10 μM; for A5 radioligand binding inhibition: human melanocortin MC5 membranes
T3 construct: purchased Perkin Elmer Biosignal
T3 sequence (P33032 whole entry): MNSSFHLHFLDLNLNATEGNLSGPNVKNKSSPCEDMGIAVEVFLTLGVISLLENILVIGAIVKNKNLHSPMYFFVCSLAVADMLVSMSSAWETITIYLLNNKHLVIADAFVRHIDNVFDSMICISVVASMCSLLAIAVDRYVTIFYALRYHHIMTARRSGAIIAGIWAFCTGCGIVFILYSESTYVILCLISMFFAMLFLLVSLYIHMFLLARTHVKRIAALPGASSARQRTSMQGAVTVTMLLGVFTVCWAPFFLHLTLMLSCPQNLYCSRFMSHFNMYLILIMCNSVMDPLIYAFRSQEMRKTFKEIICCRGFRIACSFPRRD
Method in brief: as §1

[2] = target: T4, Human melanin-concentrating hormone (MCH1) (Homo sapiens, UniProt Q99705); experiment: Radioligand binding, human melanin-concentrating hormone MCH1 membranes, FlashPlate, [125I]-S36057; conditions: compound at 10 μM; for A6 radioligand binding inhibition: human MCH1 membranes
T4 construct: purchased Perkin Elmer Biosignal
T4 sequence (Q99705 whole entry): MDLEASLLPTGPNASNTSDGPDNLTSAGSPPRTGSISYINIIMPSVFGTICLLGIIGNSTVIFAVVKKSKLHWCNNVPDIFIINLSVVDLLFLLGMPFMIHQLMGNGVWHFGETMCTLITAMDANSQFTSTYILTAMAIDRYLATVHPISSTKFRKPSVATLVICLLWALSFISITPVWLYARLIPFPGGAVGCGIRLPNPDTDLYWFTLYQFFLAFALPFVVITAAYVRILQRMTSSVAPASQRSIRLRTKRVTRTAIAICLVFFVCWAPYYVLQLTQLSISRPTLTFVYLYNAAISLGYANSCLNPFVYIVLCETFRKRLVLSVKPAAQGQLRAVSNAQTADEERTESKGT
Method in brief: as §1

Human neurokinin (NK1) = target: T5, Human neurokinin (NK1) (Homo sapiens, UniProt P25103); experiment: Radioligand binding, human neurokinin NK1 membranes, filtration, [125I]-Substance P; conditions: compound at 10 μM; for A8 radioligand binding inhibition: human neurokinin NK1 membranes
T5 construct: purchased Perkin Elmer Biosignal
T5 sequence (P25103 whole entry): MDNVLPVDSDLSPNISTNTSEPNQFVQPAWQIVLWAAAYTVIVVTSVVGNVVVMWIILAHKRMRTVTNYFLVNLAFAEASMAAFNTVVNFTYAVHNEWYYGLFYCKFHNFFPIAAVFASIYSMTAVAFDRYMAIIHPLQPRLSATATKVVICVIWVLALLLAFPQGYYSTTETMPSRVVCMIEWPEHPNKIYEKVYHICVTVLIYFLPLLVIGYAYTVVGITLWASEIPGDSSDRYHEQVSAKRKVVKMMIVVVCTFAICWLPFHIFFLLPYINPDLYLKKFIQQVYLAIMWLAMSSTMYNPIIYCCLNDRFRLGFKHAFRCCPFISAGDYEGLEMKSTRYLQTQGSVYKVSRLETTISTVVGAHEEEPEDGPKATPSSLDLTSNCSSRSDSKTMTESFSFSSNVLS
Method in brief: (§2)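 Membranes from cloned human receptors were incubated with compound and radioligand for 1 hour at room temperature. Bound ligand was collected on 0.3% PEI-soaked filters, washed with cold 50 mM Tris-HCl pH 7.4, and counted by scintillation. Percent inhibition was computed against DMSO totals and reference-ligand nonspecific wells.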

Human Melanocortin (MC3) = target: T6, Human Melanocortin (MC3) (Homo sapiens, UniProt P41968); experiment: Radioligand binding, human melanocortin MC3 membranes, FlashPlate, [125I]-NDP-αMSH; conditions: compound at 10 μM; for A3 radioligand binding inhibition: human melanocortin MC3 membranes
T6 construct: purchased Perkin Elmer Biosignal
T6 sequence (P41968 whole entry): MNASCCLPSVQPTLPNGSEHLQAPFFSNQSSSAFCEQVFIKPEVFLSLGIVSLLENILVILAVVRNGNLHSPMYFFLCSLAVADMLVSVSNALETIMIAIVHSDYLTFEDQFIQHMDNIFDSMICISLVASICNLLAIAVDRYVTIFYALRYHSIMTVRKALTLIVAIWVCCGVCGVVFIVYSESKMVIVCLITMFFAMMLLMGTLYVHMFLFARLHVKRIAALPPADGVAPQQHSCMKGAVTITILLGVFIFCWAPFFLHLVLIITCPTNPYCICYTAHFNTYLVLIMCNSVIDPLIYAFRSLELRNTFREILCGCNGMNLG
Method in brief: as §1

Human opioid (ORL1) = target: T7, Human opioid (ORL1) (Homo sapiens, UniProt P41146); experiment: Radioligand binding, human opioid ORL1 membranes, FlashPlate, [125I]-Nociceptin; conditions: compound at 10 μM
T7 construct: purchased Perkin Elmer Biosignal
T7 sequence (P41146 whole entry): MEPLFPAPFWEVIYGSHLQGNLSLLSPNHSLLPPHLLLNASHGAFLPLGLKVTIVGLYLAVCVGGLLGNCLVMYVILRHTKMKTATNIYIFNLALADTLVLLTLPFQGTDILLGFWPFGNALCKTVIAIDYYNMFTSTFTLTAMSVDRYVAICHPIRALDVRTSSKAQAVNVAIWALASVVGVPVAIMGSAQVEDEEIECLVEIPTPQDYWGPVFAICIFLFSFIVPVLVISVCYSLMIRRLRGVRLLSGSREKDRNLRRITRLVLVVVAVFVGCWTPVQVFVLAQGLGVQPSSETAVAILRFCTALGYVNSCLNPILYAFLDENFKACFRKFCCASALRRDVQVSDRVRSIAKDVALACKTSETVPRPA
Method in brief: as §1

Human μ-opioid (MOP) = target: T8, Human μ-opioid (MOP) (Homo sapiens, UniProt P35372); experiment: Radioligand binding, human μ-opioid (MOP) membranes, FlashPlate, [3H]-Naloxone; conditions: compound at 10 μM; for A7 radioligand binding inhibition: human μ-opioid (MOP) membranes
T8 construct: purchased Perkin Elmer Biosignal
T8 sequence (P35372 whole entry): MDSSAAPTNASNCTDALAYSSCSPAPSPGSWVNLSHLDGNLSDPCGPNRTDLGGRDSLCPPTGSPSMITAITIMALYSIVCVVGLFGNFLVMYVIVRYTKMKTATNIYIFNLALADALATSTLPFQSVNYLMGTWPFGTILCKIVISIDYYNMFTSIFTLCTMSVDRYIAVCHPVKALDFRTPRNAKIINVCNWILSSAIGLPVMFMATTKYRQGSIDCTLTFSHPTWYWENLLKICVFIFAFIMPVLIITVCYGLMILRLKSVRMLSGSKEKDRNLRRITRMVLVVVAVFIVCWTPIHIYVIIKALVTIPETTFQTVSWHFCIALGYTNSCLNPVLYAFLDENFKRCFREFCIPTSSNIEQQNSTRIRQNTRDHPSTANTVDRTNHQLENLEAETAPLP
Method in brief: as §1

Human κ-Opioid (KOP) = target: T9, Human κ-Opioid (KOP) (Homo sapiens, UniProt P41145); experiment: Radioligand binding, human κ-opioid (KOP) membranes, filtration, [3H]-Diprenorphine; conditions: compound at 10 μM; for A2 radioligand binding inhibition: human κ-opioid (KOP) membranes
T9 construct: purchased Perkin Elmer Biosignal
T9 sequence (P41145 whole entry): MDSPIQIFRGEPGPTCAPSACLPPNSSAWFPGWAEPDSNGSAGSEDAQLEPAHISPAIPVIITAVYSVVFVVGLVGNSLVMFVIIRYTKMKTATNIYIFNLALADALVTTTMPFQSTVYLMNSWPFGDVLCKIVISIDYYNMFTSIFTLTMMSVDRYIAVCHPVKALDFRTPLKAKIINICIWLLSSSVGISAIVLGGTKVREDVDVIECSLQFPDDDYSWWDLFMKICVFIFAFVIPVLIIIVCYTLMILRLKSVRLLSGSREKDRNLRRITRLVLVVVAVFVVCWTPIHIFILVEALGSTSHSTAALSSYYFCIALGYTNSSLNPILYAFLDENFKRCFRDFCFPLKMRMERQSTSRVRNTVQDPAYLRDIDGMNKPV
Method in brief: as §2

Mouse urotensin (mUR2) = target: T10, Mouse urotensin (mUR2) (Mus musculus, UniProt Q8VIH9); experiment: Radioligand binding, mouse urotensin mUR2 membranes, FlashPlate, [125I]-Urotensin II; conditions: compound at 10 μM; for A11 radioligand binding inhibition: mouse urotensin mUR2 membranes
T10 construct: purchased Perkin Elmer Biosignal
T10 sequence (Q8VIH9 1-385): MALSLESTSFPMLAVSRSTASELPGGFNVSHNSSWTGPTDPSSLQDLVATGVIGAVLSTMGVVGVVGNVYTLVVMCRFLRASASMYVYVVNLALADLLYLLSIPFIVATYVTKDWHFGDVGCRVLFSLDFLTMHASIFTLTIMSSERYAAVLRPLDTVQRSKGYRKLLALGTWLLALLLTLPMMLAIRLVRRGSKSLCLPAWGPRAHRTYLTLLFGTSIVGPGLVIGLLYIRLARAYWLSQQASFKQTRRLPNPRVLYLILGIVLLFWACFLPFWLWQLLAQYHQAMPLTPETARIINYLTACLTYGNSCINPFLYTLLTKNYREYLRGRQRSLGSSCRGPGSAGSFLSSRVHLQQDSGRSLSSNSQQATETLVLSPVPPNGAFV
Method in brief: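 Cloned mouse urotensin (mUR2) receptor membranes from Perkin Elmer Biosignal were immobilized in FlashPlate microplates using a proprietary coating. Each well got 19.5 μl buffer, then 0.5 μl of DMSO, reference ligand, or compound. Adding 5 μl of [125I]-Urotensin II, diluted to 5× final concentration in binding buffer, started binding. Plates were sealed with TopSeal-A and incubated 1 hour at room temperature in the dark. Wells were counted for 30 seconds each on a TopCount after a 60-second delay, and percentage inhibition was calculated.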

Human δ-opioid (DOP) = target: T11, Human δ-opioid (DOP) (Homo sapiens, UniProt P41143); experiment: Radioligand binding, human δ-opioid (DOP) membranes, FlashPlate, [3H]-Bremazocine; conditions: compound at 10 μM; for A1 radioligand binding inhibition: human δ-opioid (DOP) membranes
T11 construct: purchased Perkin Elmer Biosignal
T11 sequence (P41143 whole entry): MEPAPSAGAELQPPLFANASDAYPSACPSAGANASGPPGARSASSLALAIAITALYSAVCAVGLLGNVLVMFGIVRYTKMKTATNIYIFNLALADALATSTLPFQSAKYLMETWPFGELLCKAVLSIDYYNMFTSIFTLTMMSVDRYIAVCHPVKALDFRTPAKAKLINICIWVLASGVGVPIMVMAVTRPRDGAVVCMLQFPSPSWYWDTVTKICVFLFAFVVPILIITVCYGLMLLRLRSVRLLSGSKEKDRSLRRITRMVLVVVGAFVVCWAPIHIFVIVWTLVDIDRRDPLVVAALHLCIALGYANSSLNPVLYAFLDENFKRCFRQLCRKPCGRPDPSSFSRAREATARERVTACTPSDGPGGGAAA
Method in brief: as §1

T1 sequence (P32245 whole entry): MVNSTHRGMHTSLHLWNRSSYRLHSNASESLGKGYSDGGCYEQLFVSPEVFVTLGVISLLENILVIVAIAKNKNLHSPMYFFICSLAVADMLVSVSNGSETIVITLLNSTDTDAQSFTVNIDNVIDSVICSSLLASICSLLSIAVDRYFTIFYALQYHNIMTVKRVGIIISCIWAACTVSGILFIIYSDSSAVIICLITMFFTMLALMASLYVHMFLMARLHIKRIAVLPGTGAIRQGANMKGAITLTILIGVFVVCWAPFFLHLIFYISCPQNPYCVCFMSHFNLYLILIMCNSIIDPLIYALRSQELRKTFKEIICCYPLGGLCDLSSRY

SMILES: NCCC(=O)N[C@H]1C(OCc2ccc3ccccc3c2)O[C@H](COCc2ccc3ccccc3c2)[C@@H](O)[C@@H]1OCc1ccc(Cl)cc1 (stereo partly shown) [compound 436]
- A4: inhibition of radioligand binding (Human Melanocortin (MC4); [125I]-NDP-αMSH, human MC4 membranes): + (“+” indicates greater than 50% inhibition at 10 μM)
- A9: inhibition of radioligand binding ([1]; [125I]-PYY, human NPY-Y1 membranes): − (“−” indicates less than 50% inhibition at 10 μM)
- A5: inhibition of radioligand binding (Human melanocortin (MC5); [125I]-NDP-αMSH, human MC5 membranes): + (“+” indicates greater than 50% inhibition at 10 μM)
- A6: inhibition of radioligand binding ([2]; [125I]-S36057, human MCH1 membranes): + (“+” indicates greater than 50% inhibition at 10 μM)
- A8: inhibition of radioligand binding (Human neurokinin (NK1); [125I]-Substance P, human NK1 membranes): + (“+” indicates greater than 50% inhibition at 10 μM)
- A3: inhibition of radioligand binding (Human Melanocortin (MC3); [125I]-NDP-αMSH, human MC3 membranes): + (“+” indicates greater than 50% inhibition at 10 μM)
- A10: inhibition of radioligand binding (Human opioid (ORL1); [125I]-Nociceptin, human ORL1 membranes): − (“−” indicates less than 50% inhibition at 10 μM)
- A7: inhibition of radioligand binding (Human μ-opioid (MOP); [3H]-Naloxone, human MOP membranes): − (“−” indicates less than 50% inhibition at 10 μM)
- A2: inhibition of radioligand binding (Human κ-Opioid (KOP); [3H]-Diprenorphine, human KOP membranes): − (“−” indicates less than 50% inhibition at 10 μM)
- A11: inhibition of radioligand binding (Mouse urotensin (mUR2); [125I]-Urotensin II, mouse mUR2 membranes): − (“−” indicates less than 50% inhibition at 10 μM)
- A1: inhibition of radioligand binding (Human δ-opioid (DOP); [3H]-Bremazocine, human DOP membranes): − (“−” indicates less than 50% inhibition at 10 μM)

SMILES: CO[C@H]1[C@H](O)[C@@H](COCc2ccc(-c3ccccc3)cc2)OC(OCc2ccc(-c3ccccc3)cc2)[C@@H]1NC(=O)CCCN (stereo partly shown) [compound 53]
- A4 radioligand binding inhibition (Human Melanocortin (MC4)): − (“−” indicates less than 50% inhibition at 10 μM)
- A9 radioligand binding inhibition ([1]; human NPY-Y1 membranes): − (“−” indicates less than 50% inhibition at 10 μM)
- A5 radioligand binding inhibition (Human melanocortin (MC5)): − (“−” indicates less than 50% inhibition at 10 μM)
- A6 radioligand binding inhibition [2]: + (“+” indicates greater than 50% inhibition at 10 μM)
- A8 radioligand binding inhibition (Human neurokinin (NK1)): − (“−” indicates less than 50% inhibition at 10 μM)
- A3 radioligand binding inhibition (Human Melanocortin (MC3)): − (“−” indicates less than 50% inhibition at 10 μM)
- A10 radioligand binding inhibition (Human opioid (ORL1); human ORL1 membranes): − (“−” indicates less than 50% inhibition at 10 μM)
- A7 radioligand binding inhibition (Human μ-opioid (MOP)): − (“−” indicates less than 50% inhibition at 10 μM)
- A2 radioligand binding inhibition (Human κ-Opioid (KOP)): − (“−” indicates less than 50% inhibition at 10 μM)
- A11 radioligand binding inhibition (Mouse urotensin (mUR2)): − (“−” indicates less than 50% inhibition at 10 μM)
- A1 radioligand binding inhibition (Human δ-opioid (DOP)): − (“−” indicates less than 50% inhibition at 10 μM)

SMILES: COCC1OC(OCc2ccc3ccccc3c2)C(NC(=O)CN)C(OCc2ccc(-c3ccccc3)cc2)C1O (stereo not shown) [compound 241]
- A4: inhibition of radioligand binding (Human Melanocortin (MC4); [125I]-NDP-αMSH, FlashPlate): + (“+” indicates greater than 50% inhibition at 10 μM)
- A9: inhibition of radioligand binding ([1]; [125I]-PYY, FlashPlate): − (“−” indicates less than 50% inhibition at 10 μM)
- A5: inhibition of radioligand binding (Human melanocortin (MC5); [125I]-NDP-αMSH, FlashPlate): + (“+” indicates greater than 50% inhibition at 10 μM)
- A6: inhibition of radioligand binding ([2]; [125I]-S36057, FlashPlate): − (“−” indicates less than 50% inhibition at 10 μM)
- A8: inhibition of radioligand binding (Human neurokinin (NK1); [125I]-Substance P, filtration): + (“+” indicates greater than 50% inhibition at 10 μM)
- A3: inhibition of radioligand binding (Human Melanocortin (MC3); [125I]-NDP-αMSH, FlashPlate): − (“−” indicates less than 50% inhibition at 10 μM)
- A10: inhibition of radioligand binding (Human opioid (ORL1); [125I]-Nociceptin, FlashPlate): − (“−” indicates less than 50% inhibition at 10 μM)
- A7: inhibition of radioligand binding (Human μ-opioid (MOP); [3H]-Naloxone, FlashPlate): − (“−” indicates less than 50% inhibition at 10 μM)
- A2: inhibition of radioligand binding (Human κ-Opioid (KOP); [3H]-Diprenorphine, filtration): − (“−” indicates less than 50% inhibition at 10 μM)
- A11: inhibition of radioligand binding (Mouse urotensin (mUR2); [125I]-Urotensin II, FlashPlate): − (“−” indicates less than 50% inhibition at 10 μM)
- A1: inhibition of radioligand binding (Human δ-opioid (DOP); [3H]-Bremazocine, FlashPlate): − (“−” indicates less than 50% inhibition at 10 μM)

SMILES: [N-]=[N+]=N[C@H]1C(OCCNC(=N)N)O[C@H](COCc2ccccc2)[C@@H](O)[C@@H]1OCc1ccc2ccccc2c1 (stereo partly shown) [compound 127]
- A4 radioligand binding, percentage inhibition (Human Melanocortin (MC4); [125I]-NDP-αMSH): + (“+” indicates greater than 50% inhibition at 10 μM)
- A9 radioligand binding, percentage inhibition ([1]; [125I]-PYY): − (“−” indicates less than 50% inhibition at 10 μM)
- A5 radioligand binding, percentage inhibition (Human melanocortin (MC5); [125I]-NDP-αMSH): + (“+” indicates greater than 50% inhibition at 10 μM)
- A6 radioligand binding, percentage inhibition ([2]; [125I]-S36057): − (“−” indicates less than 50% inhibition at 10 μM)
- A8 radioligand binding, percentage inhibition (Human neurokinin (NK1); [125I]-Substance P): + (“+” indicates greater than 50% inhibition at 10 μM)
- A3 radioligand binding, percentage inhibition (Human Melanocortin (MC3); [125I]-NDP-αMSH): − (“−” indicates less than 50% inhibition at 10 μM)
- A10 radioligand binding, percentage inhibition (Human opioid (ORL1); [125I]-Nociceptin): − (“−” indicates less than 50% inhibition at 10 μM)
- A7 radioligand binding, percentage inhibition (Human μ-opioid (MOP); [3H]-Naloxone): − (“−” indicates less than 50% inhibition at 10 μM)
- A2 radioligand binding, percentage inhibition (Human κ-Opioid (KOP); [3H]-Diprenorphine): − (“−” indicates less than 50% inhibition at 10 μM)
- A11 radioligand binding, percentage inhibition (Mouse urotensin (mUR2); [125I]-Urotensin II): − (“−” indicates less than 50% inhibition at 10 μM)
- A1 radioligand binding, percentage inhibition (Human δ-opioid (DOP); [3H]-Bremazocine): − (“−” indicates less than 50% inhibition at 10 μM)

SMILES: CO[C@H]1[C@H](O)[C@@H](COCc2ccc(-c3ccccc3)cc2)OC(OCc2ccc3ccccc3c2)[C@@H]1NC(=O)CCNC(=N)N (stereo partly shown) [compound 67]
- A4 radioligand binding inhibition (Human Melanocortin (MC4)): + (“+” indicates greater than 50% inhibition at 10 μM)
- A9 radioligand binding inhibition ([1]; human NPY-Y1 membranes): − (“−” indicates less than 50% inhibition at 10 μM)
- A5 radioligand binding inhibition (Human melanocortin (MC5)): + (“+” indicates greater than 50% inhibition at 10 μM)
- A6 radioligand binding inhibition [2]: + (“+” indicates greater than 50% inhibition at 10 μM)
- A8 radioligand binding inhibition (Human neurokinin (NK1)): + (“+” indicates greater than 50% inhibition at 10 μM)
- A3 radioligand binding inhibition (Human Melanocortin (MC3)): + (“+” indicates greater than 50% inhibition at 10 μM)
- A10 radioligand binding inhibition (Human opioid (ORL1); human ORL1 membranes): + (“+” indicates greater than 50% inhibition at 10 μM)
- A7 radioligand binding inhibition (Human μ-opioid (MOP)): + (“+” indicates greater than 50% inhibition at 10 μM)
- A2 radioligand binding inhibition (Human κ-Opioid (KOP)): − (“−” indicates less than 50% inhibition at 10 μM)
- A11 radioligand binding inhibition (Mouse urotensin (mUR2)): − (“−” indicates less than 50% inhibition at 10 μM)
- A1 radioligand binding inhibition (Human δ-opioid (DOP)): + (“+” indicates greater than 50% inhibition at 10 μM)
